This note sets out measurements from US5098900A, “3(2H)pyridazinone, process for its preparation and anti-allergic agent containing it” (Nissan Chemical Industries Ltd., priority 1984, dated 1992).

Read-outs that look alike come from different tables or passages of the source.

Data set [1] relates to SRS-A. Briefly: SRS-A antagonism in guinea-pig ileum (SRS-A-induced contraction). The data set is classed as cell-based. Conditions: 1 min, test compound 5×10^-7 g/ml, isolated guinea-pig ileum; for inhibition at 0.5 µg/mL: Cavia porcellus. As for the experimental part: (i) SRS-A antagonism in quinea-pig ileum
SRS-A antagonism was determined against the contraction induced by SRS-A in isolated guinea-pig ileum. The SRS-A was prepared in accordance with the method of Brocklehurst (J. Physiol., 151, 416, 1960) and Kohno and Parker (J. Immunol., 125, 446, 1980). Adult male guinea-pigs (200-250 g) were sensitized with chick egg albumin (EA), 100 mg subcutaneously and 100 mg intraperitoneally. Three weeks later the animals were killed by a blow on the head and lungs were perfused free of blood with Tyrode solution passed through the right ventricle. Isolated lungs were chopped into pieces (1 mm^3) by a scissors in Tyrode solution and filtrated with gauze, and then 1.0-1.3 g of chopped lung fragments were distributed into individual tubes (9.7 ml of Tyrode solution/tube). EA solution (0.3 ml) at a 3×10^-4 g/ml final concentration was added to the tubes and incubated for 20 min at 37° C., and then the supernatant was used for the SRS-A antagonism.
Assay for SRS-A antagonism was performed as follows: Ileum preparations isolated from male guinea-pig (300-400 g) were suspended under 0.5 g tension in organ baths (5 ml) containing Tyrode solution maintained at 30° C. and gassed with 95% O2 +5% CO2. After the repeated responses to histamine (10^-7 g/ml) was established, the contractile response to SRS-A (0.5 ml) was carried out in the presence of 10^-6 M atropine and 10^-6 M pyrilamine. Test compounds dissolved in 100% dimethyl sulfoxide were added to the organ baths (final concentration of 5×10^-7 g/ml) 1 min prior to the SRS-A addition, and SRS-A-induced contractions were compared with those of control (SRS-A-induced contraction before the treatment). The SRS-A antagonism (%) =[1.0 - (SRS-A-induced contraction in test compound)/control]×100

The test system of data set [2] is LTD4. Briefly: Effect on bronchoconstriction induced by intravenous administration of LTD4. The format is in vivo, guinea-pig. Conditions: 2 mg/kg, i.v., in Tween 80; LTD4 2 μg/kg i.v. The method, then:
(iv) Effect on bronchoconstriction induced by intravenous (i.v.) administration of LTD4
Bronchoconstrictions induced by i.v. administration of LTD4 in guinea-pigs (350-450 g) were measured as described in anaphylactic bronchoconstriction. Guinea-pigs were anaesthetized with urethane (1.5 g/kg) and the trachea was cannulated to record total pulmonary resistance. The right jugular vein was cannulated for the administration of the all agents. The guinea-pigs were artificially ventilated by a small respirator set at a stroke volume of 5 ml and a rate of 50 breaths per min. LTD4 (2 μg/kg)-induced bronchoconstriction was shown by the increase in air overflow volume. After the response to histamine (5 μg/kg) was checked, the first response to LTD4 was obtain-d as control. […] Inhibition (%) of the bronchoconstriction was determined as follows: Inhibition (%) =(1.0 -peak value in the second response/peak value in the first response)×100.

The test system of data set [3] is LTC4. Briefly: LTC4 antagonism in isolated guinea-pig trachea (LTC4-induced contraction). The format is cell-based. Conditions: 5 min; for inhibition at 10 µg/mL: Cavia porcellus, read-out: LTC4 antagonism. As for the experimental part:
(ii) LTC4 and LTD4 antagonisms in guinea-pig trachea
Antagonism for LTC4 and LTD4 were determined in isolated guinea-pig trachea prepared as spiral strip. 10 Tracheal preparations were suspended under 1 g tension in […] and they were incubated for 1 hr prior to use. Contractile responses to LTC4 (2×10^-8 g/ml) and LTD4 (2×10^-8 g/ml) were obtained after the maximal response to histamine (10^-4 M). Test compounds dissolved in 100% dimethyl sulfoxide were added to the organ baths (final concentration of 10^-5 g/ml) 5 min prior to LTC4 and LTD4 addition, and then contractile responses to LTC4 and LTD4 were compared with those of control which was obtained from a paired trachea in the absence of test compounds. LTC4 - and LTD4 -induced contractions were expressed as a percentage of the maximal response to histamine. The antagonism was determined as follows: Antagonism (%)=(1.0-% contraction in test/% contraction in control)×100

The test system of data set [4] is antigen-induced anaphylactic bronchoconstriction. Briefly: Effect on anaphylactic bronchoconstriction in passively sensitized guinea-pig. The format is in vivo. Conditions: 2 mg/kg, i.v. As for the experimental part: (iii) Effect on anaphylactic bronchoconstriction in passively sensitized guinea-pig
Male guinea-pigs (350-450 g) were passively sensitized with intravenous (i.v.) injection of 0.125 ml rabbit anti-EA serum (Cappel Laboratories) 1 day preceding the experiment. […] The right jugular vein was cannulated for the administration of the all agents and trachea was cannulated to record total pulmonary resistance. Guinea-pigs were artificially ventilated by a small animal respirator (Shinano, Model SN-480-7) set at a stroke volume of 4-5 ml and a rate of 50 breaths per min. […] The increase in air overflow volume was expressed as a percentage of the maximum bronchoconstriction obtained by clamping off the trachea. Following surgical preparation, the animals were pretreated with indomethacin (1.0 mg/kg, 10 min), pyrilamine (2 mg/kg, 6 min) and propranolol (0.1 mg/kg, 5 min) prior to the EA challenge (0.1 or 10 mg/kg). All test compounds, 2 mg/kg in 3% Tween 80 or 3% PEG-400, were administered 1 min before the EA challenge. Inhibition (%) of bronchoconstriction was determined as follows Inhibition (%)=(1.0% -maximum bronchoconstriction in test/% maximum bronchoconstriction in control) ×100.
In the Table, the dose of EA was 10 mg/kg, and each compound was dissolved or suspended in 3% Tween 80.
In the Table, the dose of EA was 0.1 mg/kg.
*: PEG represents polyethylene glycol400.

For data set [5], the system named is LTD4. Briefly: LTD4 antagonism in isolated guinea-pig trachea (LTD4-induced contraction). The format is cell-based. Conditions: Cavia porcellus, 5 min, test compound 10^-5 g/ml, LTD4 2×10^-8 g/ml. The gist of the method: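 Spiral strips of isolated guinea-pig trachea were held at 1 g tension in organ baths and incubated for 1 hr. After a maximal histamine (10^-4 M) response, test compounds in 100% dimethyl sulfoxide were added 5 min before LTD4 (2×10^-8 g/ml). Contraction, as percent of histamine maximum, was compared with a paired untreated control trachea to give antagonism (%).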

The subject of data set [6] is ddY strain male mice. Briefly: Acute toxicity test, method-(1), oral administration. The format is in vivo. Conditions: 300 mg/kg, P.O., 7 days after administration. As for the experimental part: The lethal ratio was determined in ddY strain male mice (4 weeks old) at 7 days after the oral administration of test compounds.
The mark [7] stands for this setting: test compound 10^-5 g/ml, LTC4 2×10^-8 g/ml, guinea-pig trachea.

The compound `CC(C)(C)n1ncc(NCc2ccccc2)c(Cl)c1=O` [Compound No. 1] showed an inhibition at 0.5 µg/mL in data set [1] of 14%. Further, in data set [2], the “Inhibition of LTD4-induced bronchoconstriction” value is on record as 23%.
In the case of `Cc1cccc(CNc2cnn(C(C)(C)C)c(=O)c2Cl)c1` [Compound No. 2], the inhibition at 10 µg/mL in data set [3] (setting [7]) was 84%. The same compound returned an inhibition at 0.5 µg/mL in data set [1] of 47%. The “Inhibition of anaphylactic bronchoconstriction” value in data set [4] (EA 10 mg/kg, 3% Tween 80) is 21%.
With `Cc1ccc(CNc2cnn(C(C)(C)C)c(=O)c2Cl)cc1` [Compound No. 3], the inhibition at 10 µg/mL in data set [5] was determined as 50%; in data set [3] (setting [7]), 42%. In data set [1], the inhibition at 0.5 µg/mL amounted to 64%. Also, in data set [2], the “Inhibition of LTD4-induced bronchoconstriction” value is on record as 60.6%.
On to `CCc1ccc(CNc2cnn(C(C)(C)C)c(=O)c2Cl)cc1` [Compound No. 4], for which, in data set [6], the Lethal ratio was 0/3. For the same compound, the inhibition at 10 µg/mL in data set [3] (setting [7]) amounted to 55%. In data set [1], the inhibition at 0.5 µg/mL is 73%.
The compound `COc1ccc(CNc2cnn(C(C)(C)C)c(=O)c2Cl)cc1` [Compound No. 9] returned an inhibition at 0.5 µg/mL in data set [1] of 72%. The “Inhibition of LTD4-induced bronchoconstriction” value in data set [2] is 38%. For the same compound, the “Inhibition of anaphylactic bronchoconstriction” value in data set [4] (EA 10 mg/kg, 3% Tween 80) stood at 35%.
As for `CCOc1ccc(CNc2cnn(C(C)(C)C)c(=O)c2Cl)cc1` [Compound No. 10], the Lethal ratio in data set [6] is on record as 0/3. For the same compound, the inhibition at 10 µg/mL in data set [3] (setting [7]) worked out at 50%. Also, the inhibition at 0.5 µg/mL in data set [1] amounted to 40%. Moreover, in data set [4] (EA 10 mg/kg, 3% Tween 80), the “Inhibition of anaphylactic bronchoconstriction” value stood at 31%.
In data set [1], `CN(C)c1ccc(CNc2cnn(C(C)(C)C)c(=O)c2Cl)cc1.Cl` [Compound No. 44, 4-Chloro-5-(4-dimethylaminobenzylamino)-2-t-butyl-3-(2H)pyridazinone hydrochloride] had an SRS-A antagonism of 55%. Further, the “Inhibition of LTD4-induced bronchoconstriction” value in data set [2] worked out at 72.5%. Besides, in data set [4] (EA 10 mg/kg, 3% Tween 80), the “Inhibition of anaphylactic bronchoconstriction” value turned out to be 72%.
`CCOC(=O)c1ccc(CNc2cnn(C(C)(C)C)c(=O)c2Cl)cc1` [Compound No. 52] had an inhibition at 0.5 µg/mL in data set [1] of 72%. Besides, in data set [4] (EA 10 mg/kg, 3% Tween 80), the “Inhibition of anaphylactic bronchoconstriction” value turned out to be 30%.
Turning to `CCCc1c(OCC(O)COc2ccc3c(=O)cc(C(=O)O)oc3c2CCC)ccc(C(C)=O)c1O` (stereo not shown) [FPL-55712, reference compound], the inhibition at 10 µg/mL in data set [5] amounted to 88%; in data set [3] it was 100%. The compound further showed an inhibition at 0.5 µg/mL in data set [1] of 88%. In data set [2], the “Inhibition of LTD4-induced bronchoconstriction” value worked out at 100%. Also, the “Inhibition of anaphylactic bronchoconstriction” value in data set [4] (EA 0.1 mg/kg, Tween 80) worked out at 60%; in data set [4] (EA 10 mg/kg, 3% Tween 80), 27%.
Take `CCCOc1ccc(CNc2cnn(C(C)(C)C)c(=O)c2Cl)cc1` [compound 11]: the inhibition at 10 µg/mL in data set [3] (setting [7]) worked out at 25%. Moreover, the inhibition at 0.5 µg/mL in data set [1] stood at 74%. For the same compound, the “Inhibition of anaphylactic bronchoconstriction” value in data set [4] (EA 10 mg/kg, 3% Tween 80) turned out to be 21%.
As for `CC(C)(C)n1ncc(NCc2ccc(Cl)cc2)c(Cl)c1=O` [compound 22], in data set [3] (setting [7]), the inhibition at 10 µg/mL came out at 20%. Besides, the inhibition at 0.5 µg/mL in data set [1] stood at 76%. Further, the “Inhibition of anaphylactic bronchoconstriction” value in data set [4] (EA 10 mg/kg, 3% Tween 80) was 23%.
As for `CCN1CCN(Cc2ccc(CNc3cnn(C(C)(C)C)c(=O)c3Cl)cc2)CC1` [compound 35], in data set [3] (setting [7]), the LTC4 antagonism was 37%. The compound also gave an inhibition at 0.5 µg/mL in data set [1] of 10%.
With `COCCNC(=O)c1ccc(CNc2cnn(C(C)(C)C)c(=O)c2Cl)cc1` [compound 55], the inhibition at 10 µg/mL in data set [3] (setting [7]) is 14%. This compound yielded an inhibition at 0.5 µg/mL in data set [1] of 12%.
